Source: ChEMBL document CHEMBL1129906, “Synthesis and binding affinity of new muscarinic ligands structurally related to oxotremorine” (Bioorg Med Chem Lett, 1997)
pIC50: −log10 of the molar value.

Legend:
[1] = target: Muscarinic acetylcholine receptor; assay: Compound was assessed for the binding affinity against muscarinic receptor subtypes in rat brain using [3H]OXO-M radioligand as a muscarinic receptor agonist at a concentration of 0.2 nM; format: tissue-based
[2] = target: T1, Muscarinic acetylcholine receptor M2 (Rattus norvegicus, UniProt P10980); assay: Muscarinic receptor M2 in rat heart using [3H]QNB (quinuclidinyl benzylate) radioligand as a M2 non-selective muscarinic receptor antagonist at a concentration of 0.12 nM
T1 sequence (P10980 whole entry): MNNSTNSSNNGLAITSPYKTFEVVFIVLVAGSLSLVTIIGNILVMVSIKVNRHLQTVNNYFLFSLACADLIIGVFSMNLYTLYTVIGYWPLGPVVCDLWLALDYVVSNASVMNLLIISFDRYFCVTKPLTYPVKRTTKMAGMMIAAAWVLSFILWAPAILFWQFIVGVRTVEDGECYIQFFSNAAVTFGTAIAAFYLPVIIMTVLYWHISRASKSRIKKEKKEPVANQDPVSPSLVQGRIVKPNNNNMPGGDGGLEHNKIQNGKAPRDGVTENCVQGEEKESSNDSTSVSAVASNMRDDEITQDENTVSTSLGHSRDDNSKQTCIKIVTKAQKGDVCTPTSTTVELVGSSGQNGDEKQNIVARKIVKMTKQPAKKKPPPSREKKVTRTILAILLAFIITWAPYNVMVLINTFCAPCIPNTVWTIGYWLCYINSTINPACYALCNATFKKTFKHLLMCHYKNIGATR

[3] = target: T2, Muscarinic acetylcholine receptor M1 (Rattus norvegicus, UniProt P08482); assay: Binding affinity against Muscarinic receptor M1 in rat brain using [3H]-PZ (pirenzepine) radioligand at a concentration of 1 nM; format: tissue-based
T2 sequence (P08482 whole entry): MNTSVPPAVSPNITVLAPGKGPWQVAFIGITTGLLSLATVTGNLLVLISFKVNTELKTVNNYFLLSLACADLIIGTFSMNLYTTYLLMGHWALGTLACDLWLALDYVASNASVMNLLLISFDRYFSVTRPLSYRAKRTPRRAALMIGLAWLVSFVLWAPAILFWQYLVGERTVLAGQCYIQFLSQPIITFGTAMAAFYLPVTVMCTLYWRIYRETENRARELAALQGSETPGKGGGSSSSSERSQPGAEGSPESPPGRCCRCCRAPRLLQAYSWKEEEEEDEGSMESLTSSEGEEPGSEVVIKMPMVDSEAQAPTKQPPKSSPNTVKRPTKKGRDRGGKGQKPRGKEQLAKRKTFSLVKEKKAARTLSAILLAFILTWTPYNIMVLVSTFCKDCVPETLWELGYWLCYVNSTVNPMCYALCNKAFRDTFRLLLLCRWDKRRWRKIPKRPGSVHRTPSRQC

[4] = target: T1, Muscarinic acetylcholine receptor M2; assay: Binding affinity against Muscarinic receptor M2 in rat brain using [3H]QNB (quinuclidinyl benzylate) radioligand at a concentration of 0.12 nM; format: tissue-based
[5] = Selectivity for was determined by the displacement of [3H]PZ in rat brain preparations; expressed as ratio of M1/M2; format: tissue-based

Row | SMILES | IC50 [1] | pIC50 [2] | pIC50 [3] | pIC50 [4] | Selectivity ratio [5]
1 | O=C1CCCN1CC#CCN1CCCC1 [OXOTREMORINE] | 2 nM | 7.08 | 7.00 | 5.70 | 
2 | C[N+](C)(C)CC#CCN1OCCC1=O | 0.8 nM | 7.13 | 5.89 | 4.76 | 140
3 | O=C1CCON1CC#CCN1CCCC1 | 1.6 nM | 6.67 | 7.11 | 5.55 | 
4 | CN(C)CC#CCN1OCCC1=O | 23 nM | 5.86 | 5.15 | 4.00 | 41.2
5 | C(#CCN1CCCC1)COC1=NOCC1 | 4 nM | 6.63 | 6.39 | 5.07 | 
